Consider seven compounds from PubChem BioAssay (NCI).

Among the test systems are SF-539 CNS; SF-295 CNS; SNB-75 CNS; UACC-62 melanoma; HCT-116 colon; SW-620 colon; HL-60(TB) leukemia; T-47D breast; UACC-257 melanoma; MOLT-4 leukemia.
Common to all, as to assay: NCI tumour cell line growth inhibition, 48 h

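Grown in 96-well plates, cells were treated for 48 hours with each compound at five concentrations. Insufficient inhibition: endpoint recorded as highest concentration tested. GI50 marks 50% less growth. Definition used: TGI = concentration required for complete inhibition of growth.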 Where only a bound is given, the exact number is not on record here.

In the case of `CNC(=O)c1cncc(/C=C/c2c(C)cccc2C)c1`, the GI50 with SF-539 CNS was 14.5 µM; in the experiment on SF-295 CNS it was above 25 µM; in the experiment with SNB-75 CNS it was 4.83 µM; with UACC-62 melanoma it was above 22.5 µM; in the experiment on HCT-116 colon, above 25 µM; in the experiment with SW-620 colon it was above 25 µM. Also, the GI50 with HL-60(TB) leukemia, in the experiment with T-47D breast, in the experiment on UACC-257 melanoma and in the experiment with MOLT-4 leukemia was above 25 µM each time. Moreover, the TGI is above 25 µM in the experiment with SF-539 CNS; above 25 µM in the experiment on SF-295 CNS; above 18.2 µM in the experiment on SNB-75 CNS; above 25 µM with UACC-62 melanoma; above 25 µM in the experiment on HCT-116 colon; above 25 µM in the experiment with SW-620 colon. The TGI in the experiment with HL-60(TB) leukemia, with T-47D breast, in the experiment on UACC-257 melanoma and with MOLT-4 leukemia was above 25 µM each time.

For the compound `NCC1OC(n2cnc3c(=O)[nH]c(N)nc32)C(O)C1O` (stereo not given), the TGI in the experiment with SF-539 CNS, in the experiment on SF-295 CNS, in the experiment with SNB-75 CNS, in the experiment on UACC-62 melanoma, in the experiment on HCT-116 colon and with SW-620 colon was above 100 µM throughout. Moreover, the TGI with HL-60(TB) leukemia, in the experiment with T-47D breast, with UACC-257 melanoma and in the experiment on MOLT-4 leukemia was above 100 µM throughout.

Regarding `COc1c(B(O)O)cccc1-c1nc2c(F)cc3[nH]ncc3c2c2c1CCCC2`, the GI50 is 0.343 µM in the experiment with SF-539 CNS; 2.23 µM with SF-295 CNS; 0.0246 µM in the experiment on SNB-75 CNS; 1.14 µM in the experiment with UACC-62 melanoma; 0.422 µM in the experiment on HCT-116 colon; 0.604 µM in the experiment on SW-620 colon. In addition, the GI50 with HL-60(TB) leukemia is 0.436 µM; in the experiment with T-47D breast it was 2.56 µM; with UACC-257 melanoma, 3.37 µM; in the experiment with MOLT-4 leukemia, 0.844 µM. The TGI with SF-539 CNS was 4.99 µM; in the experiment with SF-295 CNS it was 12.8 µM; in the experiment with SNB-75 CNS it was 0.498 µM; with UACC-62 melanoma it was 9.53 µM; in the experiment with HCT-116 colon, above 53.6 µM; in the experiment on SW-620 colon, 14.4 µM. Besides, the TGI is 11.3 µM in the experiment with HL-60(TB) leukemia, 22.2 µM with T-47D breast, 24 µM with UACC-257 melanoma and above 100 µM with MOLT-4 leukemia.

As for `C=C1SC(=Nc2ccccc2Cl)N(C(=O)c2sc3ccccc3c2Cl)C1(C)C`, the GI50 in the experiment on SF-539 CNS is 14 µM; in the experiment with SF-295 CNS, 2.07 µM; in the experiment on SNB-75 CNS, 6.41 µM; in the experiment with UACC-62 melanoma, 9.24 µM; in the experiment with HCT-116 colon, 8.01 µM; in the experiment with SW-620 colon it was 4.68 µM. Besides, the GI50 in the experiment with HL-60(TB) leukemia was 9.3 µM; in the experiment with T-47D breast it was 3.09 µM; in the experiment on UACC-257 melanoma, 29.2 µM; with MOLT-4 leukemia, 3.47 µM. In addition, the TGI in the experiment on SF-539 CNS was above 100 µM; in the experiment on SF-295 CNS it was 10.7 µM; in the experiment on SNB-75 CNS, 97.4 µM; with UACC-62 melanoma, above 100 µM; in the experiment with HCT-116 colon, above 44.5 µM; in the experiment on SW-620 colon, above 100 µM. Also, the TGI was above 100 µM in the experiment with HL-60(TB) leukemia, 26.8 µM with T-47D breast, above 100 µM in the experiment with UACC-257 melanoma and above 25.4 µM with MOLT-4 leukemia.

As to `O=c1ccccc(-c2ccc(-c3ccco3)cc2)c1O`, the GI50 with SF-539 CNS was 0.703 µM; in the experiment with SF-295 CNS, 0.555 µM; in the experiment with SNB-75 CNS, 0.994 µM; with UACC-62 melanoma it was 0.588 µM; in the experiment with HCT-116 colon, 0.582 µM; in the experiment with SW-620 colon, 0.438 µM. Also, the GI50 is 0.441 µM with HL-60(TB) leukemia, 1.56 µM with T-47D breast, 1.6 µM with UACC-257 melanoma and 0.501 µM with MOLT-4 leukemia. Further, the TGI with SF-539 CNS was 6.38 µM; with SF-295 CNS, 13.6 µM; in the experiment with SNB-75 CNS, above 100 µM; with UACC-62 melanoma, 4.14 µM; in the experiment with HCT-116 colon it was 15.8 µM; in the experiment with SW-620 colon it was 29.1 µM. In addition, the TGI stood at 2.69 µM in the experiment with HL-60(TB) leukemia, 80.3 µM with T-47D breast, 18.8 µM in the experiment with UACC-257 melanoma and 51.5 µM in the experiment on MOLT-4 leukemia.

In the case of `COc1ccccc1N1CCN(C(=O)c2ccc(NS(=O)(=O)c3cccc4cccnc34)cc2)CC1`, the GI50 in the experiment with SF-539 CNS is above 54.4 µM; in the experiment with SF-295 CNS, above 39 µM; with SNB-75 CNS it was 10.1 µM; in the experiment with UACC-62 melanoma, above 100 µM; in the experiment on HCT-116 colon, above 94.2 µM; with SW-620 colon, above 100 µM. For the same compound, the GI50 in the experiment with HL-60(TB) leukemia was above 100 µM; with T-47D breast, above 22.1 µM; in the experiment on UACC-257 melanoma, above 100 µM; in the experiment with MOLT-4 leukemia, above 100 µM. Also, the TGI in the experiment with SF-539 CNS is above 100 µM; in the experiment on SF-295 CNS, above 100 µM; with SNB-75 CNS, above 53.7 µM; in the experiment with UACC-62 melanoma, above 100 µM; in the experiment with HCT-116 colon it was above 100 µM; in the experiment on SW-620 colon, above 100 µM. For the same compound, the TGI in the experiment with HL-60(TB) leukemia, in the experiment on T-47D breast, with UACC-257 melanoma and in the experiment on MOLT-4 leukemia was above 100 µM each time.

For `O=C(NC1CCN(Cc2ccccc2)CC1)c1cc(C(=O)NC2CCN(Cc3ccccc3)CC2)cc(C(=O)NC2CCN(Cc3ccccc3)CC2)c1`, the GI50 was 0.865 µM with SF-539 CNS; 6.76 µM in the experiment on SF-295 CNS; 1.48 µM in the experiment on SNB-75 CNS; 7.71 µM in the experiment with UACC-62 melanoma; 3.51 µM with HCT-116 colon; 3.86 µM in the experiment on SW-620 colon. Also, the GI50 in the experiment with HL-60(TB) leukemia was 15.1 µM; in the experiment on T-47D breast, 4.56 µM; in the experiment on UACC-257 melanoma, 8.08 µM; with MOLT-4 leukemia, 1.22 µM. Also, the TGI in the experiment with SF-539 CNS was found to be 1.62 µM; in the experiment on SF-295 CNS, 15.6 µM; in the experiment with SNB-75 CNS, 7.42 µM; with UACC-62 melanoma, 15.2 µM; with HCT-116 colon it was 14 µM; with SW-620 colon it was 13 µM. In addition, the TGI with HL-60(TB) leukemia is above 50 µM; in the experiment on T-47D breast, 14.3 µM; in the experiment on UACC-257 melanoma, 16.5 µM; in the experiment on MOLT-4 leukemia, 3.16 µM.
